Laboratory results reported in PubChem BioAssay AID330 (DTP/NCI, 2004).
Several values for one entry are separate records, joined by “and”; a condition that tells them apart may be missing. Identical values can stand only once. Inconclusive results and toxic doses are left out. Rule for the calls: active = survival T/C of 150% or more; inactive = T/C below 125% in these data.

Test system: P388 leukemia ip, CD2F1 mice, survival T/C
Experiment: NCI In Vivo Anticancer Drug Screen. Data for tumor model P388 Leukemia (intraperitoneal) in CD2F1 (CDF1) mice
Conditions: endpoint: median survival time, higher = longer survival
Procedure, shortened: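 Mice carrying the transplanted tumor received test compound or vehicle. Survival was recorded in each group, and the value is the treated-group measurement divided by that of the vehicle-treated control group.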

[1] = dose: 60.0 mg/kg/injection, schedule: Q01DX005 (ip), vehicle: saline with Tween-80
[2] = dose: 120.0 mg/kg/injection, schedule: Q01DX005 (ip), vehicle: saline with Tween-80
[3] = dose: 240.0 mg/kg/injection, schedule: Q01DX005 (ip), vehicle: saline with Tween-80
[4] = dose: 100.0 mg/kg/injection, schedule: Q01DX001 (ip), vehicle: saline with Tween-80
[5] = dose: 200.0 mg/kg/injection, schedule: Q01DX001 (ip), vehicle: saline with Tween-80
[6] = dose: 50.0 mg/kg/injection, schedule: Q01DX005 (ip), vehicle: saline with Tween-80
[7] = dose: 100.0 mg/kg/injection, schedule: Q01DX005 (ip), vehicle: saline with Tween-80
[8] = dose: 200.0 mg/kg/injection, schedule: Q01DX005 (ip), vehicle: saline with Tween-80
[9] = dose: 12.5 mg/kg/injection, schedule: Q01DX009 (ip), vehicle: saline with Tween-80

Measured: T/C

Cc1ccc(CCN(S(=O)(=O)c2ccc(C)cc2)S(=O)(=O)c2ccc(C)cc2)cc1
inactive: dose: 50.0 mg/kg/injection, schedule: Q01DX009 (ip), vehicle: Klucel (hydroxypropylcellulose) (HPC) 92 % of control | dose: 100.0 mg/kg/injection, schedule: Q01DX009 (ip), vehicle: Klucel (hydroxypropylcellulose) (HPC) 96 % of control | dose: 200.0 mg/kg/injection, schedule: Q01DX009 (ip), vehicle: Klucel (hydroxypropylcellulose) (HPC) 86 % of control

C/C(=N\N=C\N(C)S(=O)(=O)c1ccc(C)cc1)c1ccccc1
inactive: dose: 50.0 mg/kg/injection, schedule: Q01DX005 (ip), vehicle: Klucel (hydroxypropylcellulose) (HPC) 104 % of control | dose: 100.0 mg/kg/injection, schedule: Q01DX005 (ip), vehicle: Klucel (hydroxypropylcellulose) (HPC) 98 % of control | dose: 200.0 mg/kg/injection, schedule: Q01DX005 (ip), vehicle: Klucel (hydroxypropylcellulose) (HPC) 95 % of control

O=C(Nc1ccc(Cl)cc1)Nc1nnc(/C=C/c2ccc(Cl)c(Cl)c2)o1
inactive: [1] 95 % of control | [2] 91 % of control | [3] 101 % of control

COc1cc2ccc(/C(C)=N/OC(C)=O)cc2cc1OC
inactive: dose: 100.0 mg/kg/injection, schedule: Q01DX009 (ip), vehicle: saline with Tween-80 95 % of control | dose: 200.0 mg/kg/injection, schedule: Q01DX009 (ip), vehicle: saline with Tween-80 90 % of control | dose: 400.0 mg/kg/injection, schedule: Q01DX009 (ip), vehicle: saline with Tween-80 90 % of control

CCCCOc1cccc2c(NCCCCCCNc3c4ccccc4nc4c(OCCCC)cccc34)c3ccccc3nc12
inactive: dose: 0.62 mg/kg/injection, schedule: Q## X009 (ip), vehicle: lactic acid 104 % of control | dose: 1.25 mg/kg/injection, schedule: Q## X009 (ip), vehicle: lactic acid 104 % of control | dose: 2.5 mg/kg/injection, schedule: Q## X009 (ip), vehicle: lactic acid 106 % of control | dose: 5.0 mg/kg/injection, schedule: Q## X009 (ip), vehicle: lactic acid 99 % of control

Cn1nncc1NS(=O)(=O)c1ccc([N+](=O)[O-])cc1
inactive: [4] 107 % of control | [5] 115 % of control | dose: 400.0 mg/kg/injection, schedule: Q01DX001 (ip), vehicle: saline with Tween-80 98 % of control

NCCc1ccncc1
inactive: dose: 60.0 mg/kg/injection, schedule: Q01DX005 (ip), vehicle: suspension in saline 98 % of control | dose: 120.0 mg/kg/injection, schedule: Q01DX005 (ip), vehicle: suspension in saline 94 % of control

N#CC(C#N)=C(C#N)Nc1ccc(F)cc1
inactive: dose: 30.0 mg/kg/injection, schedule: Q01DX005 (ip), vehicle: Klucel (hydroxypropylcellulose) (HPC) 91 % of control | dose: 60.0 mg/kg/injection, schedule: Q01DX005 (ip), vehicle: Klucel (hydroxypropylcellulose) (HPC) 90 % of control

COc1cc(C=Nc2cc(Br)cc(Br)c2)ccc1N(CCCl)CCCl
active: dose: 1.5 mg/kg/injection, schedule: Q01DX009 (ip), vehicle: saline with Tween-80 170 % of control | dose: 2.5 mg/kg/injection, schedule: Q01DX009 (ip), vehicle: saline with Tween-80 165 % of control | dose: 5.0 mg/kg/injection, schedule: Q01DX009 (ip), vehicle: saline with Tween-80 170 % of control | dose: 9.0 mg/kg/injection, schedule: Q04DX003 (ip), vehicle: other 165 % of control | dose: 18.0 mg/kg/injection, schedule: Q04DX003 (ip), vehicle: other 223 % of control
inactive: dose: 0.44 mg/kg/injection, schedule: Q01DX009 (ip), vehicle: saline with Tween-80 120 % of control | dose: 0.66 mg/kg/injection, schedule: Q01DX009 (ip), vehicle: saline with Tween-80 105 % of control | dose: 2.25 mg/kg/injection, schedule: Q04DX003 (ip), vehicle: other 111 % of control | dose: 10.0 mg/kg/injection, schedule: Q01DX009 (ip), vehicle: saline with Tween-80 110 % of control

CC1Nc2ccccc2NC1C (configuration not stated)
inactive: dose: 6.25 mg/kg/injection, schedule: Q01DX009 (ip), vehicle: saline + Tween-80 + alcohol 98 % of control | dose: 12.5 mg/kg/injection, schedule: Q01DX009 (ip), vehicle: saline + Tween-80 + alcohol 96 % of control | dose: 25.0 mg/kg/injection, schedule: Q01DX009 (ip), vehicle: saline + Tween-80 + alcohol 99 % of control and 95 % of control | dose: 50.0 mg/kg/injection, schedule: Q01DX009 (ip), vehicle: saline + Tween-80 + alcohol 91 % of control | dose: 100.0 mg/kg/injection, schedule: Q01DX009 (ip), vehicle: saline + Tween-80 + alcohol 100 % of control

Oc1c(Cl)cc(Cl)cc1CN1CCCCC1
inactive: dose: 50.0 mg/kg/injection, schedule: Q01DX009 (ip), vehicle: suspension in saline 91 % of control | dose: 100.0 mg/kg/injection, schedule: Q01DX009 (ip), vehicle: suspension in saline 98 % of control | dose: 200.0 mg/kg/injection, schedule: Q01DX009 (ip), vehicle: suspension in saline 91 % of control

Cc1cccc2c(NCCCCCCNc3cc(C)[n+](C)c4c(C)cccc34)cc(C)[n+](C)c12
inactive: dose: 3.12 mg/kg/injection, schedule: Q01DX005 (ip), vehicle: suspension in saline 112 % of control | dose: 6.25 mg/kg/injection, schedule: Q01DX005 (ip), vehicle: suspension in saline 106 % of control | dose: 12.5 mg/kg/injection, schedule: Q01DX005 (ip), vehicle: suspension in saline 112 % of control

Nc1cccc2cccc([N+](=O)[O-])c12
inactive: dose: 25.0 mg/kg/injection, schedule: Q01DX001 (ip), vehicle: saline with Tween-80 97 % of control | dose: 50.0 mg/kg/injection, schedule: Q01DX001 (ip), vehicle: saline with Tween-80 110 % of control | [4] 99 % of control | [5] 98 % of control

Cn1cnc2cc3c(cc2c1=O)nc1n3CCCC1
inactive: dose: 100.0 mg/kg/injection, schedule: Q04DX003 (ip), vehicle: saline 102 % of control | dose: 200.0 mg/kg/injection, schedule: Q04DX003 (ip), vehicle: saline 95 % of control

CC(C)(C)c1cc(C(C)(C)C)c(P(C(O[Si](C)(C)C)=C(c2ccccc2)c2ccccc2)C(O[Si](C)(C)C)=C(c2ccccc2)c2ccccc2)c(C(C)(C)C)c1
inactive: [1] 94 % of control | [2] 99 % of control | [3] 93 % of control

O=c1oc2c(c(N(c3ccccc3)c3ccccc3)c1Cl)CCc1nc(-c3ccccc3)sc1-2
inactive: [6] 91 % of control | [7] 94 % of control | [8] 88 % of control

O=C1c2ccccc2C(=O)c2c1c([N+](=O)[O-])c1c(c2[N+](=O)[O-])OCO1
inactive: [1] 86 % of control | [2] 86 % of control | [3] 96 % of control

COc1cccc(C(=O)NCCNCCNC(=O)c2cccc(OC)c2OC)c1OC
inactive: [1] 108 % of control | [2] 104 % of control | [3] 94 % of control

CC(=O)c1cccc(OC(=O)Nc2ccccc2)c1
inactive: [6] 96 % of control | [7] 90 % of control | [8] 98 % of control

Cc1cc(C)n(-c2ccccc2-[n+]2noc([O-])c2C)n1
inactive: [6] 97 % of control | [7] 95 % of control | [8] 95 % of control

c1ccc(CON(CCc2ccncc2)CCc2ccncc2)cc1
inactive: dose: 50.0 mg/kg/injection, schedule: Q01DX005 (ip), vehicle: saline 97 % of control | dose: 100.0 mg/kg/injection, schedule: Q01DX005 (ip), vehicle: saline 103 % of control | dose: 200.0 mg/kg/injection, schedule: Q01DX005 (ip), vehicle: saline 101 % of control

CN1CCN(CC(O)COc2c3ccccc3nc3ccccc23)CC1 (configuration not stated)
inactive: [6] 104 % of control | [7] 95 % of control

N#CC1CCCC(c2ccccc2)(C2CCCCC2)C1=O (configuration not stated)
inactive: dose: 100.0 mg/kg/injection, schedule: Q01DX001 (ip), vehicle: Klucel (hydroxypropylcellulose) (HPC) 99 % of control | dose: 200.0 mg/kg/injection, schedule: Q01DX001 (ip), vehicle: Klucel (hydroxypropylcellulose) (HPC) 97 % of control | dose: 400.0 mg/kg/injection, schedule: Q01DX001 (ip), vehicle: Klucel (hydroxypropylcellulose) (HPC) 103 % of control

C1=CC=CCC=C1
inactive: [9] 120 % of control

CCCCOC(=O)/C=C(\I)C(=O)OCCCC
inactive: dose: 6.25 mg/kg/injection, schedule: Q01DX009 (ip), vehicle: saline with Tween-80 101 % of control and 110 % of control and 92 % of control | [9] 112 % of control and 114 % of control and 96 % of control | dose: 25.0 mg/kg/injection, schedule: Q01DX009 (ip), vehicle: saline with Tween-80 113 % of control and 120 % of control and 124 % of control | dose: 50.0 mg/kg/injection, schedule: Q01DX009 (ip), vehicle: saline with Tween-80 110 % of control and 111 % of control and 118 % of control

CC1CCCCC12C(C#N)(C#N)C2(C#N)C#N (configuration not stated)
inactive: dose: 12.5 mg/kg/injection, schedule: Q04DX003 (ip), vehicle: Klucel (hydroxypropylcellulose) (HPC) 101 % of control | dose: 25.0 mg/kg/injection, schedule: Q04DX003 (ip), vehicle: Klucel (hydroxypropylcellulose) (HPC) 102 % of control
